Measurements: patent EP0399731B2, “Azaindenes” (AstraZeneca AB, priority 1989, dated 1990)

Key:
[1] = system: All-induced contractions of isolated rabbit aorta; assay: Test B: antagonism of All-induced contractions of isolated rabbit aorta; type: cell-based; settings: 37°C
Description: This in vitro test involves the measurement of the antagonistic effects of the test compound against All-induced contractions of isolated rabbit aorta, maintained in a physiological salt solution at 37°C. In order to ensure that the effect of the compound is specific to antagonism of All, the effect of the test compound on noradrenaline-induced contractions may also be determined in the same preparation.

[2] = target: T1, All (angiotensin II) receptors (Cavia porcellus, UniProt Q9WV26); assay: Test A: displacement of radiolabelled All binding from guinea pig adrenal gland membrane fraction; settings: guinea pig adrenal gland membranes; read-out: IC50 (concentration for 50% displacement of radiolabelled All binding)
T1 construct: from tissue; host or cells: guinea pig adrenal gland, cell surface membrane fraction
T1 sequence (Q9WV26 1-359): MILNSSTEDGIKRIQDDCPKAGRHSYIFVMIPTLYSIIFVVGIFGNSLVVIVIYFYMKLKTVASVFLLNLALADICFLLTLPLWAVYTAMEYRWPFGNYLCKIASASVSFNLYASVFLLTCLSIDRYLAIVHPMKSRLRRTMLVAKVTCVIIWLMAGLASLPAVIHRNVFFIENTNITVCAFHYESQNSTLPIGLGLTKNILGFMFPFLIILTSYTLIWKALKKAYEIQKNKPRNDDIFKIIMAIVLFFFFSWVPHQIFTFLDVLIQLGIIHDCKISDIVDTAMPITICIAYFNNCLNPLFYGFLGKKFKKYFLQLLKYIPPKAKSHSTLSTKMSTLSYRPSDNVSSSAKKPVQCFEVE
Description: This in vitro procedure involves the incubation of the test compound initially at a concentration of 100 micromolar (or less) in a buffered mixture containing fixed concentrations of radiolabelled All and a cell surface membrane fraction prepared from a suitable angiotensin target tissue. In this test, the source of cell surface membranes is the guinea pig adrenal gland which is well known to respond to All. Interaction of the radiolabelled All with its receptors (assessed as radiolabel bound to the particulate membrane fraction following removal of unbound radiolabel by a rapid filtration procedure such as is standard in such studies) is antagonized by compounds which also bind to the membrane receptor sites and the degree of antagonism (observed in the test as displacement of membrane-bound radioactivity) is determined readily by comparing the receptor-bound radioactivity in the presence of the test compound at the specified test concentration with a control value determined in the absence of the test compound. Using this procedure compounds showing at least 50% displacement of radiolabelled All binding at a concentration of 10^-4 M are retested at lower concentrations to determine their potency. […]

[3] = system: angiotensin II-induced pressor responses; assay: Test C: antagonism of angiotensin II-induced pressor responses in terminally-anaesthetised or conscious rats; type: in vivo; settings: Rattus norvegicus
Description: This in vivo test involves using terminally-anaesthetised or conscious rats in which an arterial catheter has been implanted under anaesthesia for the measurement of changes in blood pressure. The All antagonistic effects of the test compound following oral or parenteral administration, are assessed against angiotensin II-induced pressor responses. To ensure that the effect is specific the effect of the test compound on vasopressin-induced pressor responses may also be determined in the same preparation.

IC50 [2]: 14.9 nM
Structure (SMILES): CCCCc1nc2cccnc2n1Cc1ccc(-c2ccccc2-c2nnn[nH]2)cc1.Cl [Example 3, 2-butyl-3-[(2'-(1H-tetrazol-5-yl)biphenyl-4-yl)methyl]-3H-imidazo[4,5-b]pyridine hydrochloride]
pA2 [1]: 9.2
inhibition at 20 mg/kg ([3]; 1 h, after one hour at a dose of 20mg/kg (oral administration)): 54%
ED50 ([3]; parenteral administration): 1.07 mg/kg
